According to patent US12447156B2, “Treating progressive familial intrahepatic cholestasis (PFIC) with IBAT inhibitors” (ALBIREO AB, priority 2020, dated 2025):

Assay: Water content and water uptake of crystal modification 1 at different relative humidity
Assay type: physicochemical

In the case of `CCCCC1(CCCC)CN(c2ccccc2)c2cc(SC)c(OCC(=O)N[C@@H](C(=O)N[C@@H](CC)C(=O)O)c3ccc(O)cc3)cc2S(=O)(=O)N1` [crystal modification 1], the “water content of crystal” value (about 30% relative humidity, based on total crystal weight) is reported as “about 3.5 % (w/w)”, the hygroscopicity (between about 30 and about 70% RH) is reported as “relatively low hygroscopicity” and the “additional water taken up” value (humidity increased up to 95% RH, fully reversible) is reported as 1.5 % (w/w).
